The test system of experiment [1] is HEK293. Put plainly: inhibition of NOD1-driven NF-kB reporter – cell-based, luminescence, uHTS, primary screen (AID 1578). The class given is functional. The following applies: Homo sapiens.
Experiment [2] deals with HEK293. Put plainly: cells. The class given is functional, cell-based. As to conditions: Homo sapiens.
The subject of experiment [3] is HEK293. Kind of experiment: cells. It counts as functional, cell-based. As to conditions: Homo sapiens. The source holds these as a separate data set.
For experiment [4], the system named is HEK293. Kind of experiment: NOD2 signaling inhibitors in MDP-stimulated cells, cell-based, uHTS, luminescence (AID 2001). It counts as functional. As to conditions: Homo sapiens.
In another experiment the target is Tumor necrosis factor (Homo sapiens, UniProt P01375). Kind of experiment: analog potency on TNFa NF-kB signaling – cell-based, revised, SAR follow-up (AID 2337). It counts as functional.
In experiment [5] the target is T1, Nucleotide-binding oligomerization domain-containing protein 1 (Homo sapiens, UniProt Q9Y239).
T1 sequence (Q9Y239 whole entry): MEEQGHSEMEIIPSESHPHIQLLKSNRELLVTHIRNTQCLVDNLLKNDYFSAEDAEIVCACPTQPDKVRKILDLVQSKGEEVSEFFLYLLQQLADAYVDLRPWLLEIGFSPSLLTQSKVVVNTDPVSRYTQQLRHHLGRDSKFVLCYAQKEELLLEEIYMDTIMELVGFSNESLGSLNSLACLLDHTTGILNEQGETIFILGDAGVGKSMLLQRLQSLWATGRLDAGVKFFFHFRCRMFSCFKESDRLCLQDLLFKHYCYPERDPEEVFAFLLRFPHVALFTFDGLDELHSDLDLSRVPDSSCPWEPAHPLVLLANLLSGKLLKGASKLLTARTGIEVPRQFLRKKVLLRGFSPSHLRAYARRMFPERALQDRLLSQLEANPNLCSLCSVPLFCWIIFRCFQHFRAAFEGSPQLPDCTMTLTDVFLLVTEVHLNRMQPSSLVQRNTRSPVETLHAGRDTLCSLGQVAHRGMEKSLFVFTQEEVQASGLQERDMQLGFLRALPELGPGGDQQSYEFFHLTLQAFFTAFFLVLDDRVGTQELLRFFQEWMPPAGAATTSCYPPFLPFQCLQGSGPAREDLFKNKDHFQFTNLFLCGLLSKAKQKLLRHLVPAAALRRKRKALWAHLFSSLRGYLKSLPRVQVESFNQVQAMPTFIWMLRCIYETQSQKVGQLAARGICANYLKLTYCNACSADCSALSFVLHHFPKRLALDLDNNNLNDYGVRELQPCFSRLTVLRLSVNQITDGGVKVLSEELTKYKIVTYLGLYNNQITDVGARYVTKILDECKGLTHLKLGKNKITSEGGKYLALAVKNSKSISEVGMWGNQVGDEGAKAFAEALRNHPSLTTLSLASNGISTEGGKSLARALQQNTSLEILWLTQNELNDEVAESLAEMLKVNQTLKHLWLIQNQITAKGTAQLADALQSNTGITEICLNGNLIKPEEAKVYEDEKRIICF
Kind of experiment: blockers of NOD1 pathway activity – revised, SAR follow-up (AID 2333). It counts as functional.

Experiment [6] has as its system HEK293. Kind of experiment: cells. As to conditions: Homo sapiens.
Experiment [7] addresses T2, Ubiquitin-conjugating enzyme E2 N (Homo sapiens, UniProt P61088).
T2 sequence (P61088 whole entry): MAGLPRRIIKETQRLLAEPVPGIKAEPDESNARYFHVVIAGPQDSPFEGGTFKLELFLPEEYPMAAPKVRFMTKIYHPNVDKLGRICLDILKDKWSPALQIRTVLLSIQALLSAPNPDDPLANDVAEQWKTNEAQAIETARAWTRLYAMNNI
The class given is functional.

Experiment [8] has as its target Glucose-6-phosphate 1-dehydrogenase (Homo sapiens, UniProt P11413). Put plainly: inhibition of Homo sapiens G6PD, dose series – biochemical, fluorescence, selectivity assay for P. falciparum G6PD inhibitor project, dose response (AID 504792). It counts as functional.
Experiment [9] deals with Glyceraldehyde-3-phosphate dehydrogenase (Homo sapiens, UniProt P04406).
Experiment [10] concerns the target T3, Heat shock factor protein 1 (Mus musculus, UniProt P38532).
T3 sequence (P38532 whole entry): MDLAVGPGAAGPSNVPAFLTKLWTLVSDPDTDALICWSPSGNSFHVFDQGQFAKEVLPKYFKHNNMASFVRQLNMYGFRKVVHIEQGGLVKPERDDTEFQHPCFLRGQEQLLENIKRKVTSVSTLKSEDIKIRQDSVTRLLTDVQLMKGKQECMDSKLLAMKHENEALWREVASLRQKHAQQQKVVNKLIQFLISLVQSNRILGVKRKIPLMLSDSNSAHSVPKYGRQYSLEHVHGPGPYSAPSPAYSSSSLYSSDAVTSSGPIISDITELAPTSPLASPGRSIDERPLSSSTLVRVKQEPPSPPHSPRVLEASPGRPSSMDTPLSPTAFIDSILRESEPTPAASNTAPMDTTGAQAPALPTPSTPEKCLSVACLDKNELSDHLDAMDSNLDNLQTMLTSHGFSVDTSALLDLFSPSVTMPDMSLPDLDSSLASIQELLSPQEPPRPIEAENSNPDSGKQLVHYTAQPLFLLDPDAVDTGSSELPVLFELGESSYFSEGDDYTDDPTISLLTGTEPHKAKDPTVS
Kind of experiment: decrease of HSF1-responsive luciferase luminescence – cell-based, NIH3T3, dose retest, confirmation (AID 2382).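 Further: NIH3T3 fibroblasts with HSF1-driven luciferase reporter stressed by proteasome inhibitor MG132; luminescence from HSF1-driven luciferase expression after 8 hours of MG132 stress.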 The class given is functional.

In another experiment the test system is Vero. Kind of experiment: cells. The class given is functional. The following applies: Chlorocebus sabaeus.
The target of experiment [11] is Peroxisome proliferator-activated receptor gamma/Nuclear receptor coactivator 2 (Homo sapiens, UniProt P37231). The class given is functional.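 Further: agonist potency for raising coactivator recruitment to the receptor.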
Experiment [12] addresses Peroxisome proliferator-activated receptor gamma/Nuclear receptor coactivator 1 (Homo sapiens, UniProt P37231). The class given is functional.
Experiment [13] concerns the target Peroxisome proliferator-activated receptor gamma/Nuclear receptor coactivator 3 (Homo sapiens, UniProt P37231). It counts as functional.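 Further: agonist potency for raising coactivator recruitment to the receptor.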
The target in experiment [14] is T4, Corticotropin-releasing factor receptor 2/Corticotropin-releasing factor-binding protein (Homo sapiens, UniProt P24387+Q13324).
T4 sequence (Q13324 whole entry): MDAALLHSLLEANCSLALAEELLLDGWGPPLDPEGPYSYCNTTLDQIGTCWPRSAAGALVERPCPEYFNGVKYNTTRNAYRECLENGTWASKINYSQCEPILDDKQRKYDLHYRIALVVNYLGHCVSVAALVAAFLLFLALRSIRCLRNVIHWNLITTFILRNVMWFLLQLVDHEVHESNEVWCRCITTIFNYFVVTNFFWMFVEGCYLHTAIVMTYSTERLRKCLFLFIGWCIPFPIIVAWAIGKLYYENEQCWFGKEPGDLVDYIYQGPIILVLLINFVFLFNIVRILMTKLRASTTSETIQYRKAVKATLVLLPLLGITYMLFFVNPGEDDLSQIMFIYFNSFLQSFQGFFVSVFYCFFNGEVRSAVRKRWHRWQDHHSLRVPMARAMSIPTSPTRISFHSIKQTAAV
T4 sequence (P24387 whole entry): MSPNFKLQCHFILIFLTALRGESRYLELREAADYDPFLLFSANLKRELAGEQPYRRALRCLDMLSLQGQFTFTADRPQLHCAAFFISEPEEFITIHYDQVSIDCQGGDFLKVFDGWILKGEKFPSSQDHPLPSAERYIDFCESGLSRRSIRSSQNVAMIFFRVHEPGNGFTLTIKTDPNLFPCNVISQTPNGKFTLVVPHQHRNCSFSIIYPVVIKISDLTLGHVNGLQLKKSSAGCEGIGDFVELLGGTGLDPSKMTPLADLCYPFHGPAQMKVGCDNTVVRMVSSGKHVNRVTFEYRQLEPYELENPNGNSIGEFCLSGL
Kind of experiment: Dose Response confirmation of uHTS hits for small molecule antagonists of the CRF-binding protein and CRF-R2 receptor complex. It counts as functional. The following applies: read-out: IC50_Mean.

Experiment [15] deals with T4, Corticotropin-releasing factor receptor 2/Corticotropin-releasing factor-binding protein. Put plainly: activators of CRF receptor 2 with binding protein – uHTS hits, confirmation (AID 602473). It counts as functional. As to conditions: read-out: EC50_Mean.
The nature of experiment [16]: viability of uninfected HEp-2 cells – cell-based, HTS, cytotoxicity control for RSV inhibitor project, dose response (AID 2410). The class given is functional. As to conditions: human respiratory syncytial virus.
The target in experiment [17] is T3, Heat shock factor protein 1. Put plainly: enhancement of HSF1-driven luciferase signal – cell-based, NIH3T3, luminescence, dose retest, confirmation (AID 435004).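 Further: stress induced by proteasome inhibitor MG132 added 30 min after compound; luciferase reporter driven by HSF1 response element in NIH3T3 cells; actives raise luminescence as potentiators of the MG132 stress response.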 It counts as functional.
The next experiment can be described thus: cells. It counts as functional.
Experiment [18] is described as follows: microbe, parasite or virus in culture. The class given is functional. The following applies: Mycobacterium tuberculosis.
A short description of experiment [19]: reduction of Shn3 3'UTR-driven luciferase in osteoblasts – cell-based, Clone20 osteoblasts, firefly luciferase, cherry-picked, dose response (AID 624132).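 Further: firefly luciferase luminescence from reporter carrying the Shn3 3'UTR in osteoblasts.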 The class given is functional.
The nature of experiment [20]: loss of viability in HepG2 cells – cell-based, CellTiter-Glo, cherry-picked, cytotoxicity control for Shn3 inhibitor project, dose response (AID 624134). It counts as functional. (Cellular ATP, detected with luciferase, serves as a proxy for viable cell number.)
Experiment [21] can be described thus: non-specific 3'UTR reporter inhibition in Clone20-Shn3RL – cell-based, Renilla luciferase, cherry-picked, counter-screen for Shn3 inhibitor project, dose response (AID 624133). It counts as functional. Background: A counterscreen serves to expose hits that act by an unwanted route or on another target.

Here are results for 21 compounds from ChEMBL document CHEMBL1201862, “PubChem BioAssay data set” (2004).

The term AC50 denotes the concentration at which the activity in the assay is half-maximal.

The structures appear in SMILES notation. The source made the active and inactive calls. Bounds are passed on as bounds.

Sequence of Tumor necrosis factor (P01375 whole entry, the tested form may be a part): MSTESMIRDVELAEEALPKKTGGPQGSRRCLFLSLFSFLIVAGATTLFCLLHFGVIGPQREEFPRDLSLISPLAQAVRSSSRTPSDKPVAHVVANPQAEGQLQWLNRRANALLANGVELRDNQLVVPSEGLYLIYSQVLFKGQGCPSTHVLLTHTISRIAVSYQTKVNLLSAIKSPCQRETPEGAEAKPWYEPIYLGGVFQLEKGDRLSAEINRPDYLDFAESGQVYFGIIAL
Sequence of Glucose-6-phosphate 1-dehydrogenase (P11413 whole entry): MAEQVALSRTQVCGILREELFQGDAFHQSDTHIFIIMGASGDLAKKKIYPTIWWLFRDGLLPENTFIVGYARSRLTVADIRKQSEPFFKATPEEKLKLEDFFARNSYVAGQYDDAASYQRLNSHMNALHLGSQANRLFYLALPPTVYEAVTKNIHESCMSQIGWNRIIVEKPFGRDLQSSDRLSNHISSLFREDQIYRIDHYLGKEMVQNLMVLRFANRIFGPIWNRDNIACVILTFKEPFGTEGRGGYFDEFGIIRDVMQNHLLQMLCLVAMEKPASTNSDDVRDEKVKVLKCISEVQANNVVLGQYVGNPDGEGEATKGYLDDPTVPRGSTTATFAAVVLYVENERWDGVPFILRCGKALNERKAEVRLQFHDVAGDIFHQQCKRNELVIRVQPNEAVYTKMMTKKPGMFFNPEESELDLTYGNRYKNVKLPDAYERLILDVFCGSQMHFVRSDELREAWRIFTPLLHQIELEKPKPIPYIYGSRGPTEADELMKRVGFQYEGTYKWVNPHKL
Sequence of Peroxisome proliferator-activated receptor gamma/Nuclear receptor coactivator 1 (P37231 whole entry): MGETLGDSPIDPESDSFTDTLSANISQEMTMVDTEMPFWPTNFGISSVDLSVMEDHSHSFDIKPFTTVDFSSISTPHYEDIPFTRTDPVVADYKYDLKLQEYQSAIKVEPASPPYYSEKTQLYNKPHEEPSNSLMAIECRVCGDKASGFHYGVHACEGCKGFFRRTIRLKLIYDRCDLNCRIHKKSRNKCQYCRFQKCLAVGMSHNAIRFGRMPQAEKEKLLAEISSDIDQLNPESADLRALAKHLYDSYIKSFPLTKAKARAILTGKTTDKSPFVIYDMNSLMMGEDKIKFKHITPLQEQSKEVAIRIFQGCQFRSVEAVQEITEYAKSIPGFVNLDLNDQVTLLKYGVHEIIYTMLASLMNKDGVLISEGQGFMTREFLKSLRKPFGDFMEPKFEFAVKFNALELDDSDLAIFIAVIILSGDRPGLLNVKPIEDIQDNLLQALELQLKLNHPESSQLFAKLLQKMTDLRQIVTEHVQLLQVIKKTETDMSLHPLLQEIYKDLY
Sequence of Peroxisome proliferator-activated receptor gamma/Nuclear receptor coactivator 1 (Q15788 whole entry, further chain): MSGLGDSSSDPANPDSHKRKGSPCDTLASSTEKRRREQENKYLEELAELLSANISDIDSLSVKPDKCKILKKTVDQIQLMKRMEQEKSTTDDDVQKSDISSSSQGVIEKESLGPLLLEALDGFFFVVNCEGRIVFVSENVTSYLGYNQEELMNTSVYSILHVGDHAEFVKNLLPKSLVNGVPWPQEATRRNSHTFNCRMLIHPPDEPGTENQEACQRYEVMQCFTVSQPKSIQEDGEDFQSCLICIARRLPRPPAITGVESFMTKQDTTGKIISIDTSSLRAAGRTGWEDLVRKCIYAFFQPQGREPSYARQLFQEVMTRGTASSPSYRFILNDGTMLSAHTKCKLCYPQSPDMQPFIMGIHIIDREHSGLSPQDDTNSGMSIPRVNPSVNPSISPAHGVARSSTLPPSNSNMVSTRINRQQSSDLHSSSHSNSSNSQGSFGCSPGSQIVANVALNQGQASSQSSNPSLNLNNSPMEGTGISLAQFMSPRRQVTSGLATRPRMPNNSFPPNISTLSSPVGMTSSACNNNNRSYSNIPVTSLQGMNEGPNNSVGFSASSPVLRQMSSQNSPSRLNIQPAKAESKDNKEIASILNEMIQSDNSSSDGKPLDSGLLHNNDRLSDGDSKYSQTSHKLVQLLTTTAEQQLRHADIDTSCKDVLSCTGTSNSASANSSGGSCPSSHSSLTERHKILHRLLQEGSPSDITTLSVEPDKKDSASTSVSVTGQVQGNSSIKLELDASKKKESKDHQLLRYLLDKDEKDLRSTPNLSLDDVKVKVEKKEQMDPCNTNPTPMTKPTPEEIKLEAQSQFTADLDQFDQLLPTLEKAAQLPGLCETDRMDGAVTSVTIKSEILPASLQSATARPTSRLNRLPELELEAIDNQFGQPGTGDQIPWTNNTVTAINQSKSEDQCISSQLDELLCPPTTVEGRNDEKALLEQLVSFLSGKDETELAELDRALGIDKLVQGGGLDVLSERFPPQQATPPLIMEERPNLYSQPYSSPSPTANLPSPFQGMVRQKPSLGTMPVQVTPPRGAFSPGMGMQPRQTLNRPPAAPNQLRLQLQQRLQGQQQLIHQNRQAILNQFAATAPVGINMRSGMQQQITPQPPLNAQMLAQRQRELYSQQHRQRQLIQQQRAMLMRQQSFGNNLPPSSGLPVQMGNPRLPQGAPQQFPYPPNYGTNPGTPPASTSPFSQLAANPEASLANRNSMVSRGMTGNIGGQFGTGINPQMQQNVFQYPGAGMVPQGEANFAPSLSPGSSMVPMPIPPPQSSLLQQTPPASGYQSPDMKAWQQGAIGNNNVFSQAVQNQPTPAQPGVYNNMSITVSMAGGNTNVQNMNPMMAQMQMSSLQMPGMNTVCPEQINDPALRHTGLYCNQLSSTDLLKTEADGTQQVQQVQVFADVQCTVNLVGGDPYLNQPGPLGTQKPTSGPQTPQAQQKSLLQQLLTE
Sequence of Peroxisome proliferator-activated receptor gamma/Nuclear receptor coactivator 3 (P37231 whole entry): as the sequence (P37231 whole entry) above
Sequence of Peroxisome proliferator-activated receptor gamma/Nuclear receptor coactivator 3 (Q9Y6Q9 whole entry, further chain): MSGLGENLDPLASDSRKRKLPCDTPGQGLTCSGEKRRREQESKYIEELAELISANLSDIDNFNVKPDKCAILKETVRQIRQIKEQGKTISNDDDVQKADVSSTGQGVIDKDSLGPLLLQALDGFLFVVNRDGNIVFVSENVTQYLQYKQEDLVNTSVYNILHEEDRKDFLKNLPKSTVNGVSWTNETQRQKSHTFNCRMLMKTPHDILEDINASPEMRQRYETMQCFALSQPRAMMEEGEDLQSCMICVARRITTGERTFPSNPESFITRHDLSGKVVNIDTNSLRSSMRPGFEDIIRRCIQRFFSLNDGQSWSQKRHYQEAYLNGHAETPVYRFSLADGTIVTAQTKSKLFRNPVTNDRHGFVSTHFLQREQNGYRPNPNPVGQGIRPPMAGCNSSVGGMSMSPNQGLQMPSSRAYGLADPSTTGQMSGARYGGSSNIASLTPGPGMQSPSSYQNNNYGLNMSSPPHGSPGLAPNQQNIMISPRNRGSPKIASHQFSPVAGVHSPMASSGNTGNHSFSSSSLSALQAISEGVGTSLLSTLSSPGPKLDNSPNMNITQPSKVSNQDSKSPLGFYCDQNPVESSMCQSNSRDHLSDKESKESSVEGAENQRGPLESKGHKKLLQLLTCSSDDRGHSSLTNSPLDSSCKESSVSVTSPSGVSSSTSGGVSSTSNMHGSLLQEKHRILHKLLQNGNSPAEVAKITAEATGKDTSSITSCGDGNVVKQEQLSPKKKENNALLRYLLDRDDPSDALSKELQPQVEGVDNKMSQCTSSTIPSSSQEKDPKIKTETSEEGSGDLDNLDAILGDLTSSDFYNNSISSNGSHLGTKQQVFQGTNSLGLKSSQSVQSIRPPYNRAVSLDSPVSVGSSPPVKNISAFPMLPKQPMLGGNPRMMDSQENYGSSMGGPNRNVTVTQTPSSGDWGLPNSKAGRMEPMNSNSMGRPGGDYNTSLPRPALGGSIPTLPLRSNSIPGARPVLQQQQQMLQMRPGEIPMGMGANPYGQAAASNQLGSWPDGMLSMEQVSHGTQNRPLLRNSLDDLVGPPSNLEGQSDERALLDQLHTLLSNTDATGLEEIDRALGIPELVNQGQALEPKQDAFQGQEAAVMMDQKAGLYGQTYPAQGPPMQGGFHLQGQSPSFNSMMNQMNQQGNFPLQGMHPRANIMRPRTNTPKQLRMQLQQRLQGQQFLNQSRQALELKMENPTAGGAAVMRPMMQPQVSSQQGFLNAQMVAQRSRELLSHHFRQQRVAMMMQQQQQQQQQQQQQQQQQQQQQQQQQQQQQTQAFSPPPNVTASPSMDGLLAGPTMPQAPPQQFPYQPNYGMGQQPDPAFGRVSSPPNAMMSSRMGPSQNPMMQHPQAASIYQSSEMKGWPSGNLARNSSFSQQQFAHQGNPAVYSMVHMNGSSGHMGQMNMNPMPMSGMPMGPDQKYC
Sequence of Glyceraldehyde-3-phosphate dehydrogenase (P04406 whole entry): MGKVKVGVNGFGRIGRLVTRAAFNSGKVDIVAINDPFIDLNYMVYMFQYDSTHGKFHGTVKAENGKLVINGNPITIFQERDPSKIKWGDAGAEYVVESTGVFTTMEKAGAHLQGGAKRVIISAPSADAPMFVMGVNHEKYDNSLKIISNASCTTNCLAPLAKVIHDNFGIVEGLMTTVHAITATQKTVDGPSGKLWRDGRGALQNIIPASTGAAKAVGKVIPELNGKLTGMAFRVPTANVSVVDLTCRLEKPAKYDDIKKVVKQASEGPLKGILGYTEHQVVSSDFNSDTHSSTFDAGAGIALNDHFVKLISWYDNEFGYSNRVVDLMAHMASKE

Consider `COc1ccc(CNS(=O)(=O)c2ccc3c(c2)CC(C)N3C(=O)C2CC2)cc1` (centres undefined), for which the EC50 in the experiment with HEK293 [1] was 3.88 µM (active). The IC50 with HEK293 [2] was 7.96 µM (active); in the experiment on HEK293 [3] it was 14.8 µM (active); with HEK293 [4], 12.5 µM (inactive); on Tumor necrosis factor, > 20 µM (inactive); in experiment [5], 13.1 µM (active); in the experiment with HEK293 [6], > 20 µM (inactive).
For the compound `CC(C)(C)OC(=O)[C@H](CCCCN)NC(=O)c1[nH]cnc1C(=O)N[C@@H](Cc1ccccc1)C(=O)OCc1ccccc1`, the IC50 in experiment [7] is > 20 µM (inactive).
Consider `CCn1c(=O)n(CC)c2cc(N3CCCC3)c(NC(=O)c3cccc(C)c3)cc21`, for which, in experiment [8], the IC50 was > 80 µM (inactive).
`COc1cc([N+](=O)[O-])ccc1S(=O)(=O)Nc1cccnc1`: the IC50 in experiment [9] was > 100 µM (not active).
As to `CCOc1cccc(C=NN=C(S)Nc2ccccc2[N+](=O)[O-])c1O`, the IC50 on Tumor necrosis factor was 0.414 µM (active); in experiment [5] it was 8.23 µM (active); in the experiment with HEK293 [6] it was > 20 µM (inactive).
Regarding `Cc1ccc2c(c1)C1CN(C)CCC1N2C(=O)Nc1cccc(C(F)(F)F)c1` (centres undefined), the EC50 in [10] was > 195 µM (not active). The CC50 in the experiment on Vero is > 25 µM (active).
Turning to `O=C(O)c1cc(NS(=O)(=O)c2cc([N+](=O)[O-])ccc2Cl)ccc1O`, the IC50 in experiment [9] is given as > 100 µM (not active).
As for `CCNc1cc2c(cc1O)CCC1C2CCC2(C)C(O)CCC12` (centres undefined), the IC50 in experiment [8] is > 80 µM (inactive).
For `CCN(CC)S(=O)(=O)c1cccc(NC(=O)COC(=O)c2nnc(O)c3ccccc23)c1`, the EC50 in experiment [11], in experiment [12] and in experiment [13] was > 79.4 µM (not active) throughout.
Regarding `COC1=CC(=O)C=C(OC)C1(O)CC(C)=O`, the IC50 in experiment [8] is 54.3 µM (inactive).
Regarding `COc1ccccc1CN1CCC(CNS(=O)(=O)c2cc(-c3cc(C)no3)ccc2OC)CC1`, the CC50 with Vero was > 25 µM (active).
With `COc1ccc(Cl)cc1Nc1nc(NCCO)nc(N2CCCCC2)n1`, the IC50 in experiment [7] was > 20 µM (inactive); in experiment [14] it was > 47.1 µM (inactive). For the same compound, in [15], the EC50 is > 53 µM (inactive).
In the case of `COc1ccc(S(=O)(=O)N2CCN(c3ccc4nnc(-c5ccccc5)n4n3)CC2)cc1`, the CC50 in experiment [16] was > 50 µM (active). Further, in experiment [7], the IC50 was > 20 µM (inactive).
Take `Cc1n[nH]c(C)c1S(=O)(=O)N(CC(=O)Nc1ccc2c(c1)OCCO2)c1ccc(C(C)C)cc1`: the EC50 in [11], in [12] and in experiment [13] was > 79.4 µM (not active) in each case.
For the compound `COC(=O)c1ccc(C(=O)OC)c(NC(=O)C(C)(C)C)c1`, the EC50 was > 79.4 µM (not active) in [11], > 79.4 µM (not active) in experiment [12], > 79.4 µM (not active) in experiment [13] and > 260 µM (inactive) in experiment [17].
Consider `CCOc1ccc2ccccc2c1/C=N/NC(=O)c1ccncc1`, for which the IC50 in experiment [8] was 27.1 µM (inactive); in the experiment “cells” it was 0.21 µM (active).
As for `COC(=O)c1c(NC(=O)C=Cc2cccs2)sc2c1CCC(C)C2` (centres undefined), the IC50 was 5.68 µM (active) at Tumor necrosis factor, 9.46 µM (active) in experiment [5] and > 20 µM (inactive) in the experiment with HEK293 [6].
Turning to `O=C(c1cnc(-c2ccc(Cl)cc2)s1)c1ccc(Cl)cc1Cl`, the EC50 in experiment [11] was 18.7 µM (not active); in experiment [12], 30.8 µM (not active); in experiment [13] it was 38.7 µM (not active).
Consider `COC(=O)c1c(NC(=O)C(=O)N2CCCC2)sc2c1CC(C)(C)OC2`, for which the IC50 in [7] is > 20 µM (inactive).
For `Oc1ccccc1Nc1nc(NCc2ccccc2)c2ccccc2n1`, the CC50 in experiment [18] was 23.9 µM (active). In addition, in [7], the IC50 was > 20 µM (inactive). For the same compound, the concentration at half-maximal activity (AC50) in [19] was 10.7 µM (active); in experiment [20], 52.7 µM (active); in experiment [21], 5.63 µM (active).
For the compound `CCOc1ccccc1NC(=O)CCCc1nc(O)c2ccccc2n1`, the IC50 in [8] is 71.7 µM (inactive).
